{"source": "patent US10308911B2", "about": "“Methods for generating the inner ear and other cranial placode-derived tissues using pluripotent stem cells” (Indiana University Research & Technology Corporation, priority 2012, dated 2019)", "molecules": {"B1": {"name": "BMP4: recombinant human BMP4 (bone morphogenetic protein), 10 ng/mL; Stemgent (protein, UniProt P12644 293-408, looked up)", "Bone morphogenetic protein 4": "SPKHHSQRARKKNKNCRRHSLYVDFSDVGWNDWIVAPPGYQAFYCHGDCPFPLADHLNSTNHAIVQTLVNSVNSSIPKACCVPTELSAISMLYLDEYDKVVLKNYQEMVVEGCGCR"}}, "format_in_all_cases": "cell-based, mouse", "key": {"ESC aggregates [1]": {"tested_on": "ESC aggregates", "experiment": "Otic placode and otic vesicle induction (Pax2/Pax8/Ecad expression, vesicle counts)", "protocol": "On day 8 of differentiation, cell aggregates are transferred to 24 well plates (Lipidure Coat, NOF; 4-8 aggregates per well) in N2 Medium containing 1% MATRIGEL™ (a gelatinous protein mixture secreted by Engelbreth-Holm-Swarm (EHS) mouse sarcoma cells) (v/v). N2 Medium contains Advanced DMEM/F12, 1×N2 Supplement, 1 mM Penicillin/Streptomycin or 50 μg/mL Normocin (Invivogen) and 1 mM GlutaMax.\n(§1) The following small molecules and recombinant proteins were used: recombinant human BMP4 (10 ng/mL; Stemgent), human FGF2 (25 ng/mL; Peprotech), XAV939 (1 μM; Santa Cruz), SU5402 (10 μM; BioVision), SB-431542 (1 μM; Tocris Bioscience), and LDN-193189 (100 nM; Stemgent).\n(§2) RNA was isolated using the RNeasy Minikit (Qiagen) and treated with TURBO DNase (Ambion). Single-stranded cDNA was synthesized using Omniscript reverse transcriptase (Qiagen) and Oligo-dT primers. All amplicons had standardized sizes of 100-110 bps. cDNA samples were amplified on an ABI PRISM 7900HT Sequence Detection System (Applied Biosystems) using the SYBR Green PCR Master Mix (Applied Biosystems). For each PCR reaction, a mixture containing cDNA template (5 ng), Master Mix, and forward and reverse primers (400 nM each) was treated with uracil N-glycosylase at 50° C. for 2 min before undergoing the following program: 1 cycles, 95° C., 10 min; 45 cycles, 95° C., 15 sec, 60° C., 1 min; 1 cycles, 95° C., 15 sec, 60° C., 15 sec, 95° C., 15 sec; 72° C., hold. Melting curve analysis was performed to confirm the authenticity of the PCR product. The mRNA level for each gene was calculated relative to L27 mRNA expression.\nThe percentage of epithelial cells expressing Pax8/Ecad was established by analyzing serial sections of day 6 and 8 aggregates. Data are representative of 6-8 aggregates from at least 3 separate experiments. For analysis of each aggregate, 5 cryosections were chosen at random positions along the z-axis of the aggregate. Using Nikon Elements or NIH ImageJ software, the Ecad^+ outer-epithelium was outlined and cell counting of DAPI and Pax8^+ nuclei along the length of the epithelium established a percentage for each cryosection.\nSimilarly, the number of Myo7a^+ hair cells in each day 20 aggregate was determined by analyzing 10 μm serial cryosections. Each biological sample represents the average number of hair cells counted in 4-6 cell aggregates and data are representative of the average from 3 separate experiments (15 aggregates total for each condition). Odd and even numbered cryosections were analyzed separately and averaged to avoid double counting. The number of vesicles was quantified similarly, but every third section was analyzed to avoid double counting and allow for analysis of three separate staining combinations. Vesicles with a long axis diameter larger than 30 μm were accounted for to avoid double counting."}, "ESC aggregates [2]": {"tested_on": "ESC aggregates", "experiment": "Pre-placodal ectoderm induction in BMP/SB aggregates (marker expression, epithelial thickness)", "protocol": "On day 4-5, the differentiation medium is replaced with differentiation medium containing FGF2 in a final concentration range of about 5 ng/ml to about 100 ng/ml (with a preferred final concentration of about 25 ng/mL) or another FGF selected from FGF 1-FGF23), and a BMP inhibitor. In some embodiments, the BMP inhibitor is LDN-193189 (CAS No. 1062368-24-4 at about 100 nM). Alternatively, DMH1 (CAS No. 1206711-16-1) or Dorsomorphin (CAS No. […]) can be used as the BMP inhibitor were added to each well at 6× concentration in 25 μL of fresh media. The extracellular matrix protein concentration (e.g., MATRIGEL™ (a gelatinous protein mixture secreted by Engelbreth-Holm-Swarm (EHS) mouse sarcoma cells) at 2% (v/v)) is maintained throughout days 1-8. Culture of the non-neural ectoderm cells under these conditions yields preplacodal ectoderm, epithelium characterized by expression of at least one of Dlx3, Dlx5, Pax2, Pax8 and Eya1. The concentration of MATRIGEL™ (a gelatinous protein mixture secreted by Engelbreth-Holm-Swarm (EHS) mouse sarcoma cells) or another extracellular matrix protein, as mentioned herein, is maintained at 2% (v/v) throughout days 1-8.\nas §1, §2\nAggregates were fixed with 4% paraformaldehyde. […]\nThe apparent thickness of epithelia was determined by analyzing cryosections stained with Ncad (Control) or Ecad antibodies (all other conditions) on days 3-6. […] For each aggregate, 3 serial sections were analyzed. Five points along the epithelium were randomly chosen and the thickness was measured using Nikon Elements image analysis tools."}, "ESC aggregates [3]": {"tested_on": "ESC aggregates", "experiment": "Non-neural ectoderm induction in SFEBq 3D culture (qPCR, immunostaining)", "protocol": "In an exemplary embodiment using mES cells, during days 0-3, serum-free floating culture of embryoid body-like aggregate with quick reaggregation (SFEBq) to generate EBs is initiated by dissociation of adherent mES cells into a cell suspension by trypsinization (e.g., with 0.25% Trypsin-EDTA, and resuspended in “Differentiation Medium”. Differentiation Medium is composed of Glasgow Minimal Essential Medium (G-MEM) supplemented with 1.5% knockout serum replacement (KSR; Invitrogen), 0.1 mM non-essential amino acids, 1 mM sodium pyruvate, 1 mM Penicillin/Streptomycin and 1 mM 2-mercaptoethanol. Cells are then plated in 100 μl/well in a range of about 1,000-15,000 cells, but preferably about 3000 cells, a in 96-well low cell adhesion U-bottom plates. On day 1, half of the medium in each well is exchanged for fresh Differentiation Medium containing an extracellular matrix protein, e.g., MATRIGEL™ (a gelatinous protein mixture secreted by Engelbreth-Holm-Swarm (EHS) mouse sarcoma cells) (2% v/v final concentration), laminin (50-400 μg/ml), or laminin plus entactin (50-400 μg/ml each).\nOn day 3 after initiating formation of EBs, a BMP, e.g., BMP2, BMP4, or BMP7 and a TGFβ inhibitor are added to the culture medium. The concentration of BMP, e.g., BMP4, to be used in the method can range from at least about 1 ng/ml to about 50 ng/ml, e.g., about 2 ng/ml, 4 ng/ml, 5 ng/ml, 7 ng/ml, 12 ng/ml, 15 ng/ml, 20 ng/ml, 25 ng/ml, 32 ng/ml, 40 ng/ml, or another concentration of a BMP from at least about 1 ng/ml to about 50 ng/ml. In some embodiments, the BMP to be used is BMP4 at a concentration of about 10 ng/ml. BMP 4. In some embodiments, the TGFβ inhibitor to be used is SB 431542 (CAS No. 301836-41-9, at a final concentration of about 1 μM). Alternatively, any of the following TGFβ inhibitors may be used: A 83-01 (CAS No. 909910-43-6), GW 788388 (CAS No. 452342-67-5), LY 364947 (CAS No. 396129-53-6), RepSox (CAS No. 446859-33-2), SB 505124 (CAS No. 694433-59-5), SB 525334 (CAS No. 356559-20-1), or SD 208 (CAS No. […]) at a concentration of about 0.1 μM to about 5 μM.\nas §1\nRNA was isolated using the RNeasy Minikit (Qiagen) and treated with TURBO DNase (Ambion). Single-stranded cDNA was synthesized using Omniscript reverse transcriptase (Qiagen) and Oligo-dT primers. […] The mRNA level for each gene was calculated relative to L27 mRNA expression. […]"}, "[4]": {"conditions": "qPCR of day 5 samples, 10 ng/mL BMP vs vehicle control"}}, "note": "“Also recorded” adds a separate entry of the source.", "data": [{"molecule": "Cc1c[nH]c(-c2cnc(NCCNc3ccc(C#N)cn3)nc2-c2ccc(Cl)cc2Cl)n1", "note": "[CHIR99021]", "values": [{"measurement": "abundance of Pax2/Ecad+ vesicles with a luminal diameter greater than 50 μm (large vesicles)", "setting": "ESC aggregates [1]; CHIR99021 3 μM days 8-10, read on day 12", "result": "higher abundance"}]}, {"molecule": "c1ccc2c(-c3cnn4cc(-c5ccc(N6CCNCC6)cc5)cnc34)ccnc2c1", "note": "[LDN, LDN-193189]", "values": [{"measurement": "Sox1 expression after LDN treatment", "setting": "ESC aggregates [2]; BMP/SB aggregates", "result": "does not induce"}, {"measurement": "Dlx3 expression in BMP/SB aggregates after BMP inhibition", "setting": "ESC aggregates [2]; LDN treatment on day 4.5", "result": "maintained expression of Dlx3"}, {"measurement": "Dlx3 expression after LDN treatment", "setting": "ESC aggregates [2]; treatment on or before day 4", "result": "suppresses"}]}, {"molecule": "NC(=O)c1ccc(-c2nc(-c3ccc4c(c3)OCO4)c(-c3ccccn3)[nH]2)cc1", "note": "[SB, SB-431542]", "values": [{"measurement": "level of brachyury expression induced by BMP", "setting": "ESC aggregates [3]; SB added to BMP, n=3", "result": "decreases"}]}, {"molecule": "Cc1c[nH]c(/C=C2\\C(=O)Nc3ccccc32)c1CCC(=O)O", "note": "[SU5402]", "values": [{"measurement": "epithelial thickening", "setting": "ESC aggregates [2]; SU5402 (10 μM) following BMP/SB-LDN treatment", "result": "abolishes epithelial thickening"}]}, {"molecule": "Oc1nc(-c2ccc(C(F)(F)F)cc2)nc2c1CSCC2", "note": "[XAV939]", "values": [{"measurement": "number of prosensory vesicles", "setting": "ESC aggregates [1]; XAV939 (1 μM) from day 8-10, vesicles counted on day 12", "result": "significantly decreased; also recorded: decreases"}, {"measurement": "prevalence of Pax2+ vesicles", "setting": "ESC aggregates [1]; XAV939 from day 8-10", "result": "reduced"}, {"measurement": "generation of otic vesicles following BMP/SB-FGF/LDN treatment", "setting": "ESC aggregates [1]; XAV939 on days 8-10", "result": "blocked"}]}, {"molecule": "FGF: recombinant human FGF2 (25 ng/mL; Peprotech)", "values": [{"measurement": "Pax8 expression versus FGF dosage", "setting": "ESC aggregates [1]; qPCR, n=4, 25, 50 and 100 ng/mL not significantly different", "result": "dependent on FGF dosage"}]}, {"molecule": "B1", "values": [{"measurement": "brachyury+ cells in aggregates", "setting": "ESC aggregates [3]; day 5, BMP-treated aggregates", "result": "60.8±3.9", "unit": "%"}, {"measurement": "neuroectoderm marker Sox1 expression", "setting": "ESC aggregates [3]; [4]", "result": "downregulated"}, {"measurement": "non-neural ectoderm marker Dlx3 expression", "setting": "ESC aggregates [3]; [4]", "result": "upregulated"}]}]}
